Laboratory results: EP4722207A1, “OXOISOINDOLINYL-SUBSTITUTED TETRAHYDROPYRIMIDINEDIONE DERIVATIVE AND USE THEREOF” (Gluetacs Therapeutics (Shanghai) Co., Ltd., priority 2023, dated 2024)

Key:
MV-4-11 = test: Cell viability assay (CellTiter-Meiluncell Luminescent), tumor cell proliferation, MV-4-11; conditions: Homo sapiens, MV4-11, 96 h; for inhibition at 0.01 µM: read-out: Inhibition Rate at 10 nM (%); for inhibition at 0.5 µM: read-out: Inhibition Rate at 500 nM (%)
[1] = target: T1, human Cereblon WT GST-tagged protein (Homo sapiens, UniProt Q96SW2); test: CRBN-binding affinity, CEREBLON BINDING kit (HTRF); conditions: for inhibition at 0.5 µM: read-out: Inhibition Rate at 0.5 µM (%); for inhibition at 2 µM: read-out: Inhibition Rate at 2 µM (%); for IC50: 3 hours at room temperature
T1 construct: purchased CISBIO 64BDCRBNPEH
Excerpt: The CEREBLON BINDING kits (specification: 10,000 tests; product number: Catalog # 64BDCRBNPEH; CISBIO company) was used to determine the CRBN binding ability of the compounds to be tested through a HTRF method (homogeneous time-resolved fluorescence). The specific methods are as follows: • 1. […] Specifically, diluent #9 (1X) solution was used as the diluent, and multiple concentration gradients were set. […] Into the 96-well plate, the diluted test compounds and corresponding detection reagents were added, resulting in final test compound concentrations of 2 µM and 0.5 µM, respectively. […] Then, 2.5 µL of human Cereblon WT GST-tagged protein solution was added to each well. Finally, 5 µL of the thoroughly mixed Thalidomide-Re reagent and GST Eu antibody working solution were added to each of the aforementioned wells. […] The blank control wells were sequentially added with 2.5 µL of diluent #9 (1X) solution, 2.5 µL of binding buffer, and 5 µL of thoroughly mixed Thalidomide-Re reagent and GST Eu antibody working solution. • 4. […] OD 620 nm control is the absorbance value of the blank control well at an emission wavelength of 620 nm. […] OD 620 nm Std0 is the absorbance value of the solvent control well at an emission wavelength of 620 nm.

H292 = test: Cell viability assay (CellTiter-Meiluncell Luminescent), tumor cell proliferation, H292; conditions: Homo sapiens, NCI-H292, 96 h; for inhibition at 0.01 µM: read-out: Inhibition Rate at 10 nM (%); for inhibition at 0.5 µM: read-out: Inhibition Rate at 500 nM (%)
IKZF3 = target: T2, IKZF3 (Homo sapiens, UniProt Q96SW2+Q9UKT9); test: Western-blot assay, substrate protein degradation in hPBMCs: IKZF3; type: cell-based; conditions: for IKZF3 substrate protein remaining %: compounds at 50 nM and 500 nM, 24 hours
T2 construct: effects of the compounds of the present disclosure on the expression of target proteins in cells; endogenous in cells; host or cells: human PBMCs (hPBMCs)

CK1α = target: T3, CK1α (Homo sapiens, UniProt P48729+Q96SW2); test: Western-blot assay, substrate protein degradation in hPBMCs: CK1α; type: cell-based; conditions: for CK1α substrate protein remaining %: compounds at 50 nM and 500 nM, 24 hours
T3 construct: effects of the compounds of the present disclosure on the expression of target proteins in cells; endogenous in cells; host or cells: human PBMCs (hPBMCs)

IKZF2 = target: T4, IKZF2 (Homo sapiens, UniProt Q96SW2+Q9UKS7); test: Western-blot assay, substrate protein degradation in hPBMCs: IKZF2; type: cell-based; conditions: for IKZF2 substrate protein remaining %: compounds at 50 nM and 500 nM, 24 hours
T4 construct: effects of the compounds of the present disclosure on the expression of target proteins in cells; endogenous in cells; host or cells: human PBMCs (hPBMCs)

WEE1 = target: T5, WEE1 (Homo sapiens, UniProt P30291+Q96SW2); test: Western-blot assay, substrate protein degradation in hPBMCs: WEE1; type: cell-based; conditions: for WEE1 substrate protein remaining %: compounds at 50 nM and 500 nM, 24 hours
T5 construct: effects of the compounds of the present disclosure on the expression of target proteins in cells; endogenous in cells; host or cells: human PBMCs (hPBMCs)

IKZF1 = target: T6, IKZF1 (Homo sapiens, UniProt Q13422+Q96SW2); test: Western-blot assay, substrate protein degradation in hPBMCs: IKZF1; type: cell-based; conditions: for IKZF1 substrate protein remaining %: compounds at 50 nM and 500 nM, 24 hours
T6 construct: effects of the compounds of the present disclosure on the expression of target proteins in cells; endogenous in cells; host or cells: human PBMCs (hPBMCs)

GSPT1 = target: T7, GSPT1 (Homo sapiens, UniProt P15170+Q96SW2); test: Western-blot assay, substrate protein degradation in hPBMCs: GSPT1; type: cell-based; conditions: for GSPT1 substrate protein remaining %: compounds at 50 nM and 500 nM, 24 hours
T7 construct: effects of the compounds of the present disclosure on the expression of target proteins in cells; endogenous in cells; host or cells: human PBMCs (hPBMCs)

[2] = 24 hours of compound treatment, 50 nM and 500 nM

T5 sequence (P30291 whole entry): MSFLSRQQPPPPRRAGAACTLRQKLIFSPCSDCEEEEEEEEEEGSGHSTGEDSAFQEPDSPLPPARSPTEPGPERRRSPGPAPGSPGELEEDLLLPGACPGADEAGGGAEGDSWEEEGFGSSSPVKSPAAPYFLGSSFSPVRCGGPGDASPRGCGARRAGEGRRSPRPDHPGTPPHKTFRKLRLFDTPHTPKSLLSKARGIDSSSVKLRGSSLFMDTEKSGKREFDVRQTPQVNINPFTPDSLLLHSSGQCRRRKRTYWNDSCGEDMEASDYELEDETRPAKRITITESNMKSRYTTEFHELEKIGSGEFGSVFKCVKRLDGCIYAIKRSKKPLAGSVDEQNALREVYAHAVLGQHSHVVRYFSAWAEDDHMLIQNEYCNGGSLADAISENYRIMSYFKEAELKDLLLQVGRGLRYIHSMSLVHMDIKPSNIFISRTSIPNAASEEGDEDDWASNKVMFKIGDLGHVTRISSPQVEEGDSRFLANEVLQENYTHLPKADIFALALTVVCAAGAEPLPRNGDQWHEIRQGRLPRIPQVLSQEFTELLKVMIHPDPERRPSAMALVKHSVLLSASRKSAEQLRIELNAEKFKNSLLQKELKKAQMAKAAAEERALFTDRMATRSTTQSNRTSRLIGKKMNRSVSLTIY
T5 sequence (Q96SW2 whole entry): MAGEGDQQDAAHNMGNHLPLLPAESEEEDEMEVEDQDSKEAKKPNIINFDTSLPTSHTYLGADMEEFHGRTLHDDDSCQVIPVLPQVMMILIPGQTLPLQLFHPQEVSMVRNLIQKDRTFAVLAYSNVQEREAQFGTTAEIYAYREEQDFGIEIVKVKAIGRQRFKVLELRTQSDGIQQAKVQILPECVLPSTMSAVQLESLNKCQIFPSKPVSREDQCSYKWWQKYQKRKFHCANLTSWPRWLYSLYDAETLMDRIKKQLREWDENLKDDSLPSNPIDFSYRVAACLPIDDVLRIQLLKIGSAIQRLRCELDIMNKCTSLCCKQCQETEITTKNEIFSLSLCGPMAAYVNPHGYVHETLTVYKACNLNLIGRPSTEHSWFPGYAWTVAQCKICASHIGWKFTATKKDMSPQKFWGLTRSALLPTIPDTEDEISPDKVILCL
T5 sequence (Q16531 whole entry partner): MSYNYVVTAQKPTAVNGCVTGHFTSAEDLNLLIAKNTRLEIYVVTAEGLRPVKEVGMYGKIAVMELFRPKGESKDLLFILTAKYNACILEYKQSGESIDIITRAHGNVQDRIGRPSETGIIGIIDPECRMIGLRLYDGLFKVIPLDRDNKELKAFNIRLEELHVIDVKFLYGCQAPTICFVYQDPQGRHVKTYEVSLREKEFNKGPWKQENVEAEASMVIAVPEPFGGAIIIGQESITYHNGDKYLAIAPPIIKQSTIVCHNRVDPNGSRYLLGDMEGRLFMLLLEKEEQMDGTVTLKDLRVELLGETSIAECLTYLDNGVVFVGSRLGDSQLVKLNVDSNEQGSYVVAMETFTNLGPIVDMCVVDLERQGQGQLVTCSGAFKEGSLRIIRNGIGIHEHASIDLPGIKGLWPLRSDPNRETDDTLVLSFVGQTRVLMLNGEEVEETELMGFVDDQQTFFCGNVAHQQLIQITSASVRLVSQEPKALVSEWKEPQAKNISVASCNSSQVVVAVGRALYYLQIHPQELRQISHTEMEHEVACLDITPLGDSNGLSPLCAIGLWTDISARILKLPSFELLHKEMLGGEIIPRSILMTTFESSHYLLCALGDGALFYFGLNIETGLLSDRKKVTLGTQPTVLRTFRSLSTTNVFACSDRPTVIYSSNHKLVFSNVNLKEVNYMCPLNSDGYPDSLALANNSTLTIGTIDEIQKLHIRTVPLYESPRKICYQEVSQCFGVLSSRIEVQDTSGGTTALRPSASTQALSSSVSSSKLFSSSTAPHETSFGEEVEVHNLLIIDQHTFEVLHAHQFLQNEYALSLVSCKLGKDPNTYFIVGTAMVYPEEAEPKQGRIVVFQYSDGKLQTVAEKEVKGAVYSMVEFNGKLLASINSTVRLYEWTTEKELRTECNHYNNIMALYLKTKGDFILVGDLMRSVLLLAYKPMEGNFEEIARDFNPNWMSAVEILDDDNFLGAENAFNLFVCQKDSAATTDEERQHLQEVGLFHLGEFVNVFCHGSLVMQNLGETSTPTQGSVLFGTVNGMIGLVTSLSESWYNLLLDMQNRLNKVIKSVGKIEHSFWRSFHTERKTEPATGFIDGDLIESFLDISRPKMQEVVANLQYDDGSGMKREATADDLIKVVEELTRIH
T1 sequence (Q96SW2 whole entry): as the sequence (Q96SW2 whole entry) above
T6 sequence (Q13422 whole entry): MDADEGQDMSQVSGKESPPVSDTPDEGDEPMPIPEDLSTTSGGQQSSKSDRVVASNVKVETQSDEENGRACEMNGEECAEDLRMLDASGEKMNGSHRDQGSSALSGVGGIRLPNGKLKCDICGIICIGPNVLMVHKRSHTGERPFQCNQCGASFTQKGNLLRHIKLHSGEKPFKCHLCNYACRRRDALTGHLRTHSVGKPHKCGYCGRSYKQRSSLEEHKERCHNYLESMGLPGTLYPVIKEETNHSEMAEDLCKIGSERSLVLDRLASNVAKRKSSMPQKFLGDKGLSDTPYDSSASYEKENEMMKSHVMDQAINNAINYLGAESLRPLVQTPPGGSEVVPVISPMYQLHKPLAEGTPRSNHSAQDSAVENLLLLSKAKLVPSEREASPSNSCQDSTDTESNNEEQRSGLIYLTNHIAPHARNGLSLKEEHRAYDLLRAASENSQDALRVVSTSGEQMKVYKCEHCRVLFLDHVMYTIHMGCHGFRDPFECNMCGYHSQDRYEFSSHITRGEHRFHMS
T6 sequence (Q96SW2 whole entry): as the sequence (Q96SW2 whole entry) above
T6 sequence (Q16531 whole entry partner): as the sequence (Q16531 whole entry partner) above
T2 sequence (Q9UKT9 whole entry): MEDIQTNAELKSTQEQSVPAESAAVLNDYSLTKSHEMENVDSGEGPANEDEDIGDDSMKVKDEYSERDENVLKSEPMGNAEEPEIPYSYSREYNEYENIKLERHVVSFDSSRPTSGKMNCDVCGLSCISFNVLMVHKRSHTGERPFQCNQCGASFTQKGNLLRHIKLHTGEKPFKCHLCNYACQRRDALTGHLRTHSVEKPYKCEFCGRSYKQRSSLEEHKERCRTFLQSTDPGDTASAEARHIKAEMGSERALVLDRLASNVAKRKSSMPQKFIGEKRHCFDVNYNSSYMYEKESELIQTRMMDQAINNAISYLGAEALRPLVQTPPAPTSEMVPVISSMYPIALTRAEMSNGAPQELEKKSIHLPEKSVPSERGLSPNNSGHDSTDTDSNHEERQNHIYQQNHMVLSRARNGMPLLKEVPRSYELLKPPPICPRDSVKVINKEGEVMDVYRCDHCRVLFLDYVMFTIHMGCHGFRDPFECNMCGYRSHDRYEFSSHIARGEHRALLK
T2 sequence (Q96SW2 whole entry): as the sequence (Q96SW2 whole entry) above
T2 sequence (Q16531 whole entry partner): as the sequence (Q16531 whole entry partner) above
T3 sequence (P48729 whole entry): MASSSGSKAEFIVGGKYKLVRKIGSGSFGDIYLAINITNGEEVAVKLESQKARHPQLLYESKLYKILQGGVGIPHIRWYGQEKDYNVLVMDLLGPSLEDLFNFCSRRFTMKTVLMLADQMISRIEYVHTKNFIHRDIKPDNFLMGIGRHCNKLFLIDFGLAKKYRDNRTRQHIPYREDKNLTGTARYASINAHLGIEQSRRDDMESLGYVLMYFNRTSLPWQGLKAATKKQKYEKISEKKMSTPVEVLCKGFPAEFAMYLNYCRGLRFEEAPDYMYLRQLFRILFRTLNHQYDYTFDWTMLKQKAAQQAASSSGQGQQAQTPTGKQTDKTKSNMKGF
T3 sequence (Q96SW2 whole entry): as the sequence (Q96SW2 whole entry) above
T3 sequence (Q16531 whole entry partner): as the sequence (Q16531 whole entry partner) above
T4 sequence (Q9UKS7 whole entry): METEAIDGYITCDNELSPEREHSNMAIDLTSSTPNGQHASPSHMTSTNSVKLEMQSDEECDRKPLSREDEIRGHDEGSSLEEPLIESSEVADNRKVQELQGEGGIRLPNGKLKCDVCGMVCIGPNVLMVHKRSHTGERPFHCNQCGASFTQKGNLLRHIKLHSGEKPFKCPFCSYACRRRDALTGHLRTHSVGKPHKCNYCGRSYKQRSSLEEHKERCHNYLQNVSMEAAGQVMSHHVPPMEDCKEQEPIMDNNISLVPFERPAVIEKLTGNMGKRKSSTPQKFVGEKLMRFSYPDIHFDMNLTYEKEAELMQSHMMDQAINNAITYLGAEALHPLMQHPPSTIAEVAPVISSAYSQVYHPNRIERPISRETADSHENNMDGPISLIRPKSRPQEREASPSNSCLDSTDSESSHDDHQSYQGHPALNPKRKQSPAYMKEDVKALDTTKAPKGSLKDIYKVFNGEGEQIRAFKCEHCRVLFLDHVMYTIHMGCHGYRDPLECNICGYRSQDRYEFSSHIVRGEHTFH
T4 sequence (Q96SW2 whole entry): as the sequence (Q96SW2 whole entry) above
T4 sequence (Q16531 whole entry partner): as the sequence (Q16531 whole entry partner) above

`Cc1nc(C2CCN(Cc3ccc4c(c3)CN(N3CCC(=O)NC3=O)C4=O)CC2)c2c(-c3ccccc3)csc2n1` [GT-08087, 1-(5-((4-(2-methyl-5-phenylthieno[2,3-d]pyrimidin-4-yl)piperidin-1-yl)methyl)-1-oxoisoindolin-2-yl)dihydropyrimidine-2,4(1H,3H)-dione] gave an inhibition at 0.01 µM (MV-4-11) of 30 to 40%, an inhibition at 0.5 µM (MV-4-11) of 30 to 40% and an inhibition at 0.5 µM [1] of 20 to 30%. For the same compound, the inhibition at 2 µM [1] was 60 to 80%.
Compound `Cc1nc(C2=CCN(Cc3ccc4c(c3)CN(N3CCC(=O)NC3=O)C4=O)CC2)c2c(-c3ccccc3)csc2n1` [GT-08176, 1-(5-((4-(2-methyl-5-phenylthieno[2,3-d]pyrimidin-4-yl)-3,6-dihydropyridin-1(2H)-yl)methyl)-1-oxoisoindolin-2-yl)dihydropyrimidine-2,4(1H,3H)-dione] has an inhibition at 0.01 µM (MV-4-11) of 60 to 80%, an inhibition at 0.5 µM (MV-4-11) of 30 to 40% and an inhibition at 0.5 µM [1] of 30 to 40%. The inhibition at 2 µM [1] was 60 to 80%, the inhibition at 0.01 µM (H292) was 15 to 20% and the inhibition at 0.5 µM (H292) was 20 to 40%.
For `O=C1CCN(N2Cc3cc(CN4CC5CCC4CN5C(c4ccccc4)c4ccccc4)ccc3C2=O)C(=O)N1` (stereo not shown) [GT-06450, 1-(5-((5-benzhydryl-2,5-diazabicyclo[2.2.2]octan-2-yl)methyl)-1-oxoisoindolin-2-yl)dihydropyrimidine-2,4(1H,3H)-dione], the “IKZF3 substrate protein remaining %” value (IKZF3) was “A ("A" is defined as 0% ≤ substrate protein remaining % ≤ 80%)”, the “CK1α substrate protein remaining %” value (CK1α) was “B ("B" is defined as 80%< substrate protein remaining %≤ 100%)” and the IC50 [1] was 1500 to 1900 nM. The “IKZF2 substrate protein remaining %” value (IKZF2) was “A ("A" is defined as 0% ≤ substrate protein remaining % ≤ 80%)”, the “WEE1 substrate protein remaining %” value (WEE1) was “A ("A" is defined as 0% ≤ substrate protein remaining % ≤ 80%)” and the “IKZF1 substrate protein remaining %” value (IKZF1) was “B ("B" is defined as 80%< substrate protein remaining %≤ 100%)”. The “GSPT1 substrate protein remaining %” value (GSPT1) was “A ("A" is defined as 0% ≤ substrate protein remaining % ≤ 80%)”.
In the case of `Cc1nc(C2=CCN(Cc3ccc4c(c3)CN(N3CCC(=O)NC3=O)C4=O)CC2)c2c3c(sc2n1)CCCC3` [GT-08177, 1-(5-((4-(2-methyl-5,6,7,8-tetrahydrobenzo[4,5]thieno[2,3-d]pyrimidin-4-yl)-3,6-dihydropyridin-1(2H)-yl)methyl)-1-oxoisoindolin-2-yl)dihydropyrimidine-2,4(1H,3H)-dione], the inhibition at 0.01 µM (MV-4-11) is reported as 40 to 60%, the inhibition at 0.5 µM (MV-4-11) is reported as 30 to 40% and the inhibition at 0.5 µM [1] is reported as 20 to 30%. It also gave an inhibition at 2 µM [1] of 53 to 60%, an inhibition at 0.01 µM (H292) of 10 to 15% and an inhibition at 0.5 µM (H292) of 10 to 15%.
For `O=C1CCN(N2Cc3cc(CN4CC=C(c5c[nH]c6cc(F)ccc56)CC4)ccc3C2=O)C(=O)N1` [GT-07574, 1-(5-((4-(6-fluoro-1H-indol-3-yl)-3,6-dihydropyridin-1(2H)-yl)methyl)-1-oxoisoindolin-2-yl)dihydropyrimidine-2,4(1H,3H)-dione], the “substrate protein remaining % IKZF3” value (IKZF3; [2]) was “B (80%< substrate protein remaining %≤ 100%)”, the “substrate protein remaining % CK1α” value (CK1α; [2]) was “A (0% ≤ substrate protein remaining % ≤ 80%)” and the IC50 [1] was 1500 to 1900 nM. For the same compound, the “substrate protein remaining % IKZF2” value (IKZF2; [2]) was “A (0% ≤ substrate protein remaining % ≤ 80%)”, the “substrate protein remaining % WEE1” value (WEE1; [2]) was “A (0% ≤ substrate protein remaining % ≤ 80%)” and the “substrate protein remaining % IKZF1” value (IKZF1; [2]) was “B (80%< substrate protein remaining %≤ 100%)”. The “substrate protein remaining % GSPT1” value (GSPT1; [2]) was “A (0% ≤ substrate protein remaining % ≤ 80%)”.
`O=C1CCN(N2Cc3cc(CN4CCN(c5cccs5)CC4)ccc3C2=O)C(=O)N1` [GT-05073, 1-(1-oxo-5-((4-(thiophen-2-yl)piperazin-1-yl)methyl)isoindolin-2-yl)dihydropyrimidine-2,4(1H,3H)-dione] was tested, and the “IKZF3 substrate protein remaining %” value (IKZF3) was “A ("A" is defined as 0% ≤ substrate protein remaining % ≤ 80%)”, the “CK1α substrate protein remaining %” value (CK1α) was “B ("B" is defined as 80%< substrate protein remaining %≤ 100%)” and the IC50 [1] was 1000 to 1500 nM. The “IKZF2 substrate protein remaining %” value (IKZF2) was “B ("B" is defined as 80%< substrate protein remaining %≤ 100%)”, the “WEE1 substrate protein remaining %” value (WEE1) was “B ("B" is defined as 80%< substrate protein remaining %≤ 100%)” and the “IKZF1 substrate protein remaining %” value (IKZF1) was “B ("B" is defined as 80%< substrate protein remaining %≤ 100%)”. The “GSPT1 substrate protein remaining %” value (GSPT1) was “B ("B" is defined as 80%< substrate protein remaining %≤ 100%)”.
